ED50, IC50 and Occurrence of emesis data for two molecules are collected here from US7608716B2, “Pyrazolonaphthyridine derivative” (Aska Pharmaceutical Co., Ltd., priority 2002, dated 2009).

Data set [1] concerns lung neutrophil infiltration. In words: Inhibition of lung neutrophil infiltration (LPS inhalation, BALF). The format is in vivo, Hartley guinea-pigs. To be noted: Cavia porcellus, guinea-pigs, oral, 1 hour before LPS inhalation, BALF neutrophils at 24 hours, read-out: Inhibition of Lung Neutrophil Infiltration ED50: mg/kg orally. As to the method: Hartley guinea-pigs were orally received a suspension of test compounds at a dose of 0.03 to 3 mg/2 mL/kg. One hour later, the animals were received 0.1 mg/mL lipopolylsaccharide (LPS) in a physiological saline via an inhalational route with a nebulizer for 30 minutes. Twenty-four hours after the LPS inhalation, BALF samples were collected, and neutrophils were counted.

The subject of data set [2] is T1, PDE IV isozymes separated from U937 culture cells.
T1 construct: PDE IV isozymes as used herein were separated from U937 culture cells by using an anion exchange chromatography
The data set is described as follows: PDE IV inhibition ([3H]-cAMP hydrolysis). The format is biochemical. To be noted: cAMP 1 μM substrate, 30° C., 20 minutes. As to the method: PDE IV isozymes as used herein were separated from U937 culture cells by using an anion exchange chromatography. Type IV PDE isozyme was admixed with ethylene glycol (EG) to adjust the final EG concentration to 30%, then stored at −20° C. and diluted when used. The enzymatic activity for PDE IV was measured using cAMP as a substrate.
Each test compound was dissolved in DMSO to adjust the final concentration to 1% (2.5 μl/tube).
Incubation Buffer Solution (pH7.5):
• Tris-HCl (50 mM), magnesium chloride (6 mM), dithiothreitol (2.5 mM), 5-nucleotidase (4 μg/ml), bovine serum albumin (0.23 mg/ml), and cAMP (1 μM).
A mixture of the aforementioned test compound solution and the buffer solution was incubated at 30° C. for 20 minutes. The reaction was quenched by admixing with 1 ml of anion exchange resin slurry (AG1-X8, 200-400 meshes, chloride form; Bio-Rad) to absorb unreacted substrates. After the reaction stopped, the mixture was centrifuged at 800×g for 10 minutes, and the resulting supernatant was collected with vials in 250 μl aliquots. To each vial was added 5 ml of ACS-II (scintillator, Amersham). The radioactivity was measured with a liquid scintillator counter for [^3H]-adenosine and set as the PDE IV activity.

The test system of another data set is Beagle dogs. In words: Emetic action on dogs. The conditions noted are these: oral, 1 mg/kg. It counts as in vivo. As to the method:
Beagle dogs received a suspension of each test compound in 0.5% CMC-Na solution orally at a dose of 1 mg/2 mL/kg.

The next data set deals with T2, CYP3A4 (Homo sapiens, UniProt P08684).
T2 construct: purchased BD Biosciences, NJ, USA; host or cells: CYP3A4-expressing system microsomes
T2 sequence (P08684 whole entry): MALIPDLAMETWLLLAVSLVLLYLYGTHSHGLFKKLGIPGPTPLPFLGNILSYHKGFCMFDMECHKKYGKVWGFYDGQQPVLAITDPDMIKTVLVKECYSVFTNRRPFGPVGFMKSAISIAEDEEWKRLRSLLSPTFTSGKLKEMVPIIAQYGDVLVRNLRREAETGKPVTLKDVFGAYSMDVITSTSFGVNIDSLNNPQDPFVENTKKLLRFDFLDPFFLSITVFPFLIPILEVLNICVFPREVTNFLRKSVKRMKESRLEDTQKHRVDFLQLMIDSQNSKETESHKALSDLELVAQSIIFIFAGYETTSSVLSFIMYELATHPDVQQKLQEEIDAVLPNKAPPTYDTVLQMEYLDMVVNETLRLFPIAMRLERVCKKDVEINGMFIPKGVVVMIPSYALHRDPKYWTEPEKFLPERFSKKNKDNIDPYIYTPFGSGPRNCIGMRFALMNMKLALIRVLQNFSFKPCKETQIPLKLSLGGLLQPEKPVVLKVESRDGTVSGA
The data set is described as follows: Inhibition of drug-metabolizing enzyme CYP3A4 (CYP3A4/BFC kit). The format is in vitro ADME. To be noted: CYP3A4-expressing microsomes, BFC substrate, 37° C., 30 minutes; read-out: Inhibition of Drug-Metabolizing Enzymes (IC50; μM) CYP3A4. As to the method:
(§1) The inhibitory effect on CYP2D6 and CYP3A4 was determined using High Throughput Inhibitor Screening Kits: CYP2D6/AMMC and CYP3A4/BFC (both from BD Biosciences, NJ, USA). Briefly, each of NADPH regenerating systems, cofactors, and test compounds was dispensed into 96-well plates, followed by addition of each of fluorescent substrates, AMMC (CYP2D6) or BFC (CYP3A4). To each well were added CYP2D6-expressing system microsomes or CYP3A4-expressing system microsomes, and the plates were incubated at 37° C. for 30 minutes, and then read for fluorescent signals (CYP2D6: ex=390 nm, em=460 nm; CYP3A4: ex=409 nm, em=538 nm wherein excitation wavelength: ex and emission wavelength: em). Thus, each inhibitory efficacy on enzymes CYP2D6 and CYP3A4 was determined. Roflumilast was used for the reference compound in this assay.

The next data set has as its target T3, CYP2D6 (Homo sapiens, UniProt P10635).
T3 construct: purchased BD Biosciences, NJ, USA; host or cells: CYP2D6-expressing system microsomes
In words: Inhibition of drug-metabolizing enzyme CYP2D6 (CYP2D6/AMMC kit). To be noted: CYP2D6-expressing microsomes, AMMC substrate, 37° C., 30 minutes; read-out: Inhibition of Drug-Metabolizing Enzymes (IC50; μM) CYP2D6. The format is in vitro ADME. As to the method: as §1

Data set [3] deals with actively sensitized guinea pigs. The data set is described as follows: Inhibition of antigen-induced immediate asthmatic response (airway resistance, Konzett-Rossler). The conditions noted are these: Cavia porcellus, oral, 60 minutes prior to antigen-challenge, reduction of increase in airway resistance, read-out: Inhibition of Asthmatic response ED50: mg/kg orally. It counts as in vivo, Hartley guinea pigs. As to the method:
Male Hartley outbred guinea pigs were sensitized by administering intraperitoneally physiological saline (0.5 ml) containing ovalbumin (1 mg, antigen) and 5×10^9 inactivated Bordetella pertussis dead cells (adjuvant). Eleven to thirteen days after the first sensitization, 0.05 ml of an ovalbumin solution (1 mg/ml) (ovalbumin is dissolved in physiological saline) was administered to the lateroabdominal region of each guinea pig intracutaneously. An establishment of sensitization was checked relying on cutaneous reaction. Only guinea pigs wherein significant reddening responses occurred 5 to 10 minutes later were employed in the next measurement test for airway resistance.
The guinea pigs (3 animals per group) actively sensitized in the above step (1) were employed to measure for their airway pressure according to Konzett-Rossler method (Arch. Exp. Path. Pharmakol., 195, 71 (1940)).
Thirteen days after the final sensitization, guinea pigs fasted overnight, and were on the next day anesthetized with a pentobarbital solution (30 mg/1.2 ml/kg, dissolved in physiological saline, intraperitoneal administration). After the guinea pigs were fixed in a supine position, their trachea was incised followed by insertion with one port of a 4-port cannula. Among the remaining 3 ports, 2 ports were connected to an artificial respirator (Model 683, Harvard). The animals were ventilated with 10 ml/kg of air per ventilation at a rate of 60 beats/min via the artificial respirator from the cannula. One port remainder was connected to a respiratory amplifier (AR-601G, Nihon Kohden, Japan) via an airflow resistance tube (TV-241T, Nihon Kohden, Japan) and a differential pressure transducer (TP-602T, Nihon Kohden, Japan) connected with a control box (RY-111S, Nihon Kohden, Japan). From a catheter inserted into a left carotid artery, blood pressures were monitored with a blood pressure measurement unit (AP641G, NEC Corp., Japan) via a blood pressure transducer (TP-300T, Nihon Kohden, Japan), and heart rates were recorded on a thermal recorder (WT-685G, Nihon Kohden, Japan), relying on blood pressure pulse waves after being led to a cardiograph unit (AT601G, Nihon Kohden, Japan).
After airway pressure became stable, an ovalbumin solution (1 mg/ml, dissolved in physiological saline) was administered at a dose of 1 ml/kg via a tube with which the right jugular vein of guinea pigs was cannulated.
Each test compound was suspended in 0.5% CMC-Na solution and administered orally with an oral sound at a dose of 0.03 to 20 mg/2 ml/kg 60 minutes prior to the antigen-challenge. Control groups received only 0.5% CMC-Na solution in an equivalent amount. The pentobarbital-anesthetization and tracheal incision were conducted 30 minutes prior to the antigen-challenge.
Each percent reduction of increase in airway resistance (each test compound-administered group versus control group) was calculated according to the equation given below. ED50 was obtained by Probit method.

T3 sequence (P10635 whole entry): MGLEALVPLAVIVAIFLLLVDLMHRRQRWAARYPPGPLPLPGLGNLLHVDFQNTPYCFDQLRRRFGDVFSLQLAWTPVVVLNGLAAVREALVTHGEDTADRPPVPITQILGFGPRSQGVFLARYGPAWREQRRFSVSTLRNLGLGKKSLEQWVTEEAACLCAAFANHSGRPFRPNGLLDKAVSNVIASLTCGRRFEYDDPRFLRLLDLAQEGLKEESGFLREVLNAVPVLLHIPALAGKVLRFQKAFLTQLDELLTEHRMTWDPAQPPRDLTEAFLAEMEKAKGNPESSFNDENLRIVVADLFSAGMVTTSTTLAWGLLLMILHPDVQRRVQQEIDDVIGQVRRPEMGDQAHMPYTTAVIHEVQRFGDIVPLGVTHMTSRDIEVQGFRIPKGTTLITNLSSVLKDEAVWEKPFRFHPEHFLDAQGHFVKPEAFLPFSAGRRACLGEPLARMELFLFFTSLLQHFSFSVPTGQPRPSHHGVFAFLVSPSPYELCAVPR

What is called IC50 is the midpoint of a concentration-inhibition curve. For `O=c1c2c(Cc3ccccc3)n[nH]c2c2cccnc2n1-c1ccccc1` [Example No. 9, 3-benzyl-5-phenyl-1H-pyrazolo[4,3-c][1,8]naphthyridin-4 (5H)-one], the results for the ED50 in data set [1] and in data set [3] were 0.12 mg/kg and 0.16 mg/kg, respectively. In addition, the half-inhibitory concentration (IC50) in data set [2] is 0.084 µM; at CYP3A4, 8.5 µM; at CYP2D6 it was over 10 µM. Moreover, the Occurrence of emesis result in the data set with Beagle dogs is “no observation for emetic actions”.
Consider `O=c1c2c(Cc3ccc(F)cc3)n[nH]c2c2cccnc2n1-c1ccccc1` [Example No. 33, 3-(4-fluorobenzyl)-5-phenyl-1H-pyrazolo[4,3-c][1,8]naphthyridin-4 (5H)-one], for which the ED50 in data set [1] was found to be 0.09 mg/kg; in data set [3], 0.33 mg/kg. The values for the IC50 (in data set [2]; on CYP3A4; on CYP2D6) were 0.068 µM, 6.2 µM and over 10 µM, respectively. Moreover, in the data set on Beagle dogs, the Occurrence of emesis entry was “no observation for emetic actions”.
